Measured values: PubChem BioAssay (NCI)
Values joined by “and” are separate entries in the source; they are usually repeats but may differ in a detail not shown here. Identical values can stand only once.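 Step 1: Grow cells in 96-well plates. Step 2: Expose to compound for 48 hours at 5 concentrations. Step 3: Interpolate endpoints linearly; if unreached, use highest concentration. The concentration for 50% growth inhibition is given as GI50. TGI: total growth inhibition.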

Key:
Assay in all cases: NCI-60 cell line screen, 48 h
DLD-1 colon = tested on: DLD-1 colon
M19-MEL melanoma = tested on: M19-MEL melanoma
HOP-18 NSCLC = tested on: HOP-18 NSCLC
SNB-78 CNS = tested on: SNB-78 CNS
DMS 273 small cell lung = tested on: DMS 273 small cell lung
HS 578T breast = tested on: HS 578T breast
MDA-MB-231 breast = tested on: MDA-MB-231 breast
BT-549 breast = tested on: BT-549 breast
PC-3 prostate = tested on: PC-3 prostate
DU-145 prostate = tested on: DU-145 prostate

Compound	TGI (DLD-1 colon)	TGI (M19-MEL melanoma)	TGI (HOP-18 NSCLC)	TGI (SNB-78 CNS)	TGI (DMS 273 small cell lung)	TGI (HS 578T breast)	TGI (MDA-MB-231 breast)	TGI (BT-549 breast)	TGI (PC-3 prostate)	TGI (DU-145 prostate)	GI50 (M19-MEL melanoma)
CCOC(=O)C1(C#N)C(c2ccccc2)CC(O)(c2ccc(OC)cc2)C(C(=O)c2ccc(OC)cc2)C1c1ccccc1 (stereo not given)	> 100 µM	> 100 µM	> 100 µM	> 100 µM	> 100 µM						
CN(C)c1ccc(C(C=C2c3ccccc3Sc3ccccc32)=C(C#N)C#N)cc1	> 100 µM	> 100 µM	> 100 µM	> 100 µM	> 100 µM						
Cc1cc([N+](=O)[O-])ccc1Nc1cccc(Cl)c1C	33.5 µM	30.6 µM	29.6 µM		28.5 µM						
Cc1ccc(Cc2c(=O)[nH]nc3ccccc23)cc1	> 100 µM	> 100 µM	> 100 µM	> 100 µM	> 100 µM						
CC(C)N(C(=O)C12C3C4C5(C#N)C3C1(C#N)C5C42I)C(C)C (stereo not given)	> 60.9 µM	> 100 µM	> 100 µM	> 100 µM	> 60.9 µM						
CCCN=C(N)NC#N	> 100 µM	> 100 µM	> 100 µM	> 100 µM	> 100 µM						
CCCCC(C(=O)C(=O)NC1C2CC3CC(C2)CC1C3)C(=O)C(C)C (stereo not given)		> 100 µM	> 100 µM	> 100 µM	> 100 µM						
COC(=O)C1=C(O)c2cc(OC)c(OC)cc2C(c2ccc(OC)c(OC)c2)C1 (stereo not given)	> 100 µM	> 100 µM	> 100 µM	> 100 µM	> 100 µM						
CC1=NNC(=O)C2CCC(=O)N12 (stereo not given)	> 100 µM	> 100 µM	> 100 µM	> 100 µM	> 100 µM						
NNC(=S)N/N=C(\CC1OC(=O)c2ccccc21)c1ccccc1O (stereo not given)	> 100 µM	> 100 µM	> 100 µM	> 100 µM	> 100 µM						
CC(CCC=O)CCOCc1ccccc1 (stereo not given)	> 100 µM	> 100 µM	> 100 µM	> 100 µM	> 100 µM	> 100 µM	> 100 µM	> 100 µM	> 100 µM	> 100 µM	
O=C1c2cccc(NCCCNCCO)c2C(=O)c2cccc(NCCCNCCO)c21	12 µM and 6.25 µM	2.24 µM and 3.72 µM	7.69 µM	6.7 µM and 17.1 µM	3.98 µM and 5.13 µM	2.65 µM	3.37 µM	4.21 µM	5.84 µM	7.44 µM	0.712 µM and 1.8 µM
CN(C)/C=N/c1nc2c(ncn2C2OC(CO)C(O)C2O)c(=O)[nH]1 (stereo not given)	> 100 µM	> 100 µM	> 100 µM	> 100 µM	> 100 µM						
CN(C)c1nc2ccccc2[nH]1	> 100 µM	> 100 µM	> 100 µM		> 100 µM						
COC(=O)c1cc2c(s1)C(=O)c1ccccc1-2	> 100 µM	> 100 µM	> 100 µM	> 100 µM	> 100 µM						
Cn1c2c(c3ccccc31)C1CCCCCCC1C1C(=O)OC(=O)C21 (stereo not given)	> 100 µM	> 100 µM	> 100 µM	> 100 µM	42.7 µM						
S=C1NC2(CCCCCC2)NN1c1ccccc1	> 100 µM		> 100 µM			> 100 µM	> 100 µM	> 100 µM	> 100 µM	> 100 µM	
CC(=O)c1cccc(NC(=O)C(=O)NNc2n[nH]c(=S)n2N)c1	31.6 µM	2.36 µM	24.2 µM	35 µM	18.7 µM	7.48 µM		6.65 µM	23 µM	19.2 µM	
O=C(CCn1[nH]c(=O)c(Cl)c(Cl)c1=O)NO	> 100 µM	> 100 µM	> 100 µM		> 100 µM						
CC1(C)COC(c2cccnc2/C=N/O)=N1	> 100 µM	> 100 µM	> 100 µM	> 100 µM	> 100 µM						
N#CC(N)(C(=O)CCC(=O)Nc1cccc(Cl)c1)c1ccc(Cl)cc1 (stereo not given)	> 100 µM	> 100 µM	> 100 µM	> 100 µM	> 100 µM						
Cc1ccc(S(=O)(=O)N(CC(=O)O)c2ccccc2)cc1	> 100 µM	> 100 µM	> 100 µM		> 100 µM						
CO/N=C/c1cc(OC)c(OC)c(OC)c1	> 100 µM	> 100 µM	> 100 µM	> 100 µM	> 100 µM						
Cc1cc(N)c(C)c2c1[nH]c1ccc(O)cc12		> 100 µM	> 100 µM	> 100 µM	> 100 µM						
Cc1ccc(NC(=O)C(=O)C(C(=O)c2ccc3ccccc3c2)C2OC(=O)c3ccccc32)cc1C (stereo not given)	36.7 µM	20.6 µM	21.7 µM		30.3 µM						
CC(C)c1ccccc1NC(=O)CCc1n[nH]c(=S)o1	> 89.2 µM	> 100 µM	> 100 µM	> 100 µM	> 90.7 µM						
CC(O)CCC(=O)c1ccoc1 (stereo not given)	> 10000 µM	> 10000 µM	> 10000 µM	9990 µM	> 9140 µM	> 10000 µM	> 10000 µM	> 10000 µM	> 10000 µM	> 10000 µM	
COc1ccc(C2C(Cl)C(=O)N2n2cnc3ccccc3c2=O)cc1 (stereo not given)	> 100 µM	> 100 µM	> 100 µM	> 100 µM	> 100 µM						
